Measurements: ChEMBL document CHEMBL5154866 (J Med Chem, 2022)

Assays:
[1] = target: High affinity nerve growth factor receptor (Homo sapiens, UniProt P04629, G595R); test: Inhibition of TRKA G595R mutant (unknown origin) by HTRF assay
[2] = target: High affinity nerve growth factor receptor (Homo sapiens, UniProt P04629); test: Inhibition of N-terminal hexahistidine tagged TRKA (485 to 795 residues) (unknown origin) expressed in Sf9 cells using Ser/Thr 06 peptide as substrate incubated for 1 hr in presence of 400 uM ATP by FRET based Z'-Lyte assay
BaF3 [3] = test: Antiproliferative activity against mouse BaF3 cells expressing ETV6 fused TRKC assessed as cell growth inhibition incubated for 3 days by CCK8 assay; details: BaF3, 72 h
[4] = target: High affinity nerve growth factor receptor (Homo sapiens, UniProt P04629, G667C); test: Inhibition of TRKA G667C mutant (unknown origin) using Ser/Thr 06 peptide as substrate incubated for 1 hr in presence of 400 uM ATP by FRET based Z'-Lyte assay
BaF3 [5] = test: cells; details: Mus musculus, BaF3, 72 h
BaF3 [6] = test: Antiproliferative activity against mouse BaF3 cells expressing CD74 fused TRKA assessed as cell growth inhibition incubated for 3 days by CCK8 assay; details: BaF3, 72 h
BaF3 [7] = test: cells; details: Mus musculus, BaF3, 72 h; remark: listed apart in the source
[8] = target: Epithelial discoidin domain-containing receptor 1 (Homo sapiens, UniProt Q08345); test: Inhibition of human wild type partial length DDR1(R565 to V876 residue) expressed in bacterial expression system by Kinomescan method
[9] = AUC (0 to t) in Sprague-Dawley rat at 10 mg/kg, po measured upto 24 hrs by LC-MS/MS analysis; assay type: ADME, organism-based; parameters: time < 24 hrs, dose 10 mg/kg, route po; details: in vivo
[10] = target: T1, Discoidin domain-containing receptor 2 (Homo sapiens, UniProt Q16832); test: Inhibition of human wild type partial length DDR2 (V555 to E855 residues) expressed in mammalian expression system by Kinomescan method
T1 sequence (Q16832 whole entry): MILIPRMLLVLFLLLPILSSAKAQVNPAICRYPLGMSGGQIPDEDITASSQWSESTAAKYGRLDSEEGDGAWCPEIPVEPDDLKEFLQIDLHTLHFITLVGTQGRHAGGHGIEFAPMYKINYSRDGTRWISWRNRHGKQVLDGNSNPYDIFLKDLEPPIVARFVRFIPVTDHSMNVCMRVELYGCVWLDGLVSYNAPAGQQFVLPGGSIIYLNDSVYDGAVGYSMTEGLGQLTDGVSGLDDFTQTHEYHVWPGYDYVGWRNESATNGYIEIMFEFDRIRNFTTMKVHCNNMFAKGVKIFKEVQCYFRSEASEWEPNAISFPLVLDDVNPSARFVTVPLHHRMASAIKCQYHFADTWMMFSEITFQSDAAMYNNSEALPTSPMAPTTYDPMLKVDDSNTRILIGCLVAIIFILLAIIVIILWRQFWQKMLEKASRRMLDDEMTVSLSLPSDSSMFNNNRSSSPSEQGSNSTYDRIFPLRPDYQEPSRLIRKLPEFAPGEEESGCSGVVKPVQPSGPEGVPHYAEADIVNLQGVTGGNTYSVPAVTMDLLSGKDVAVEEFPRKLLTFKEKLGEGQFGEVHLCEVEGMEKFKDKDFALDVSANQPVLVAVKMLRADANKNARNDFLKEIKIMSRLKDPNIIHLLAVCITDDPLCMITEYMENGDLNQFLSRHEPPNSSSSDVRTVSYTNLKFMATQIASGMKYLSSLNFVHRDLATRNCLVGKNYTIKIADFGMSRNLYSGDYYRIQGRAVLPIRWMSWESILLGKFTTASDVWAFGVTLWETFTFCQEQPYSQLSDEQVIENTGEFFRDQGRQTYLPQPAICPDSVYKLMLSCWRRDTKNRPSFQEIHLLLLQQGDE

Ephrin type-A receptor 7 = Ephrin type-A receptor 7 (Homo sapiens, UniProt Q15375); test: Inhibition of human wild type partial length EphA7 (Y608 to S912 residues) expressed in bacterial expression system by Kinomescan method
[11] = Cmax in Sprague-Dawley rat at 10 mg/kg, po measured upto 24 hrs by LC-MS/MS analysis; assay type: ADME, organism-based; parameters: dose 10 mg/kg, time < 24 hrs, route po; details: in vivo
Angiopoietin-1 receptor = Angiopoietin-1 receptor (Homo sapiens, UniProt Q02763); test: Inhibition human wild type partial length Tie2 (N804 to T1112 residues) expressed in bacterial expression system by Kinomescan method
BaF3 [12] = test: Antiproliferative activity against mouse BaF3 cells expressing ETV6 fused TRKC G696A mutant incubated for 3 days by CCK8 assay; details: BaF3, 72 h
BaF3 [13] = test: Antiproliferative activity against mouse BaF3 cells expressing ETV6 fused TRKC G623R mutant incubated for 3 days by CCK8 assay; details: BaF3, 72 h
BaF3 [14] = test: Antiproliferative activity against mouse BaF3 cells expressing CD74 fused TRKA G667S mutant incubated for 3 days by CCK8 assay; details: BaF3, 72 h
BaF3 [15] = test: Antiproliferative activity against mouse BaF3 cells expressing ETV6 fused TRKC G623E mutant incubated for 3 days by CCK8 assay; details: BaF3, 72 h
BaF3 [16] = test: Antiproliferative activity against mouse BaF3 cells expressing ETV6 fused TRKC G696C mutant incubated for 3 days by CCK8 assay; details: BaF3, 72 h
BaF3 [17] = test: Antiproliferative activity against mouse BaF3 cells expressing CD74 fused TRKA G667A mutant incubated for 3 days by CCK8 assay; details: BaF3, 72 h
BaF3 [18] = test: Antiproliferative activity against mouse BaF3 cells expressing ETV6 fused TRKC V573M mutant incubated for 3 days by CCK8 assay; details: BaF3, 72 h
BaF3 [19] = test: Antiproliferative activity against mouse BaF3 cells expressing ETV6 fused TRKC G696S mutant incubated for 3 days by CCK8 assay; details: BaF3, 72 h
BaF3 [20] = test: Antiproliferative activity against mouse BaF3 cells assessed as inhibition of cell growth incubated for 3 days by CCK8 assay; assay type: functional, cell-based; details: BaF3, 72 h
[21] = Antiproliferative activity against human KM12-Luc cells assessed as inhibition of cell growth incubated for 3 days by CCK8 assay; assay type: functional, cell-based; details: 72 h

High affinity nerve growth factor receptor (Homo sapiens, UniProt P04629, G667C), sequence (P04629 33-796 G667C limits assumed): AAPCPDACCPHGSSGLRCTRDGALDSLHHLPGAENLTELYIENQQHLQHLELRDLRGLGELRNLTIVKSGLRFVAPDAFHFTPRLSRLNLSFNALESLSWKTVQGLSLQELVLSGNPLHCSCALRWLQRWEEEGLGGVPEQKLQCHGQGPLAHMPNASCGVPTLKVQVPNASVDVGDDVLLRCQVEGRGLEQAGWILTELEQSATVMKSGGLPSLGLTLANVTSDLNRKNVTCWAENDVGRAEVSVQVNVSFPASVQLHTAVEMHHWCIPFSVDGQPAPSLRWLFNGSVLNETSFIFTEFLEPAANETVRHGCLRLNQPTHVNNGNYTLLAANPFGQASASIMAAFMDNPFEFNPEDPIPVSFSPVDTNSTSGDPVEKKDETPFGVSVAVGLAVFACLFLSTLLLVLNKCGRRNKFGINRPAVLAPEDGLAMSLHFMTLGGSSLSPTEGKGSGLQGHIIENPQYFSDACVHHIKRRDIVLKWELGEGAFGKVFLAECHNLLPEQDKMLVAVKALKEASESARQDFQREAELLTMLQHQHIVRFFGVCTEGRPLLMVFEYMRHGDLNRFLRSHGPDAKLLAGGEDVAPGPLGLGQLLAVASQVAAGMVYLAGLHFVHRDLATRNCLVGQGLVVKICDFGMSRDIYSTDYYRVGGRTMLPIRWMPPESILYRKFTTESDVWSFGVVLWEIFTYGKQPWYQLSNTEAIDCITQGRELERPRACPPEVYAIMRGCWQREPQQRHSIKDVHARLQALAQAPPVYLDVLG
Ephrin type-A receptor 7, sequence (Q15375 whole entry, the tested form may be a part): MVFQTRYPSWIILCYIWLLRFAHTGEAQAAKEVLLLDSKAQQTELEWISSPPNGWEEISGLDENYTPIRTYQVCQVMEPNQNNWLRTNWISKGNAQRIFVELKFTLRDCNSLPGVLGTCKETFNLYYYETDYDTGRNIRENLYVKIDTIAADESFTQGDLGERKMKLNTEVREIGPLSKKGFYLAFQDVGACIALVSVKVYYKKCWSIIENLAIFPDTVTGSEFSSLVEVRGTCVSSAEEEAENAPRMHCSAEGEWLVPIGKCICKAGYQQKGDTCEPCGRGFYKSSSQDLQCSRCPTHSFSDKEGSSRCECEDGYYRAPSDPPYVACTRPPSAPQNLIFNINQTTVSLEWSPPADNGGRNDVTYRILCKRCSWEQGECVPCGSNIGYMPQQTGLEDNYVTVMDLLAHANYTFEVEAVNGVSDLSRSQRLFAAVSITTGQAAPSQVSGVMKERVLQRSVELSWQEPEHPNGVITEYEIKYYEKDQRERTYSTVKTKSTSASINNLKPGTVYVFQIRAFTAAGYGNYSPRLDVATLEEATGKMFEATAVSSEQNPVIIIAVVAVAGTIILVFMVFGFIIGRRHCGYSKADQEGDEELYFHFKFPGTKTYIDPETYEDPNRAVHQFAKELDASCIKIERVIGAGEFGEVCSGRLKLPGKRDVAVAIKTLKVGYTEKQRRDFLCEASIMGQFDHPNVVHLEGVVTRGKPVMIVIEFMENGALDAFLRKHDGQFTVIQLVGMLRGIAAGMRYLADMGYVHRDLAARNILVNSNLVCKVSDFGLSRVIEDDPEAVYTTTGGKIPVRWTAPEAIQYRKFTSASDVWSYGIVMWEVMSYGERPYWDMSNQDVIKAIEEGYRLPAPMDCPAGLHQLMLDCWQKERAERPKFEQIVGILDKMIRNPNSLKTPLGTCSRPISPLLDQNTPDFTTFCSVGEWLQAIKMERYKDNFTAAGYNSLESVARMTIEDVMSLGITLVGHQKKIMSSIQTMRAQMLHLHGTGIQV
High affinity nerve growth factor receptor (Homo sapiens, UniProt P04629, G595R), sequence (P04629 33-796 G595R limits assumed): as the sequence (P04629 33-796 G667C limits assumed) above, with G563R, C635G counted along it
Epithelial discoidin domain-containing receptor 1, sequence (Q08345 whole entry, the tested form may be a part): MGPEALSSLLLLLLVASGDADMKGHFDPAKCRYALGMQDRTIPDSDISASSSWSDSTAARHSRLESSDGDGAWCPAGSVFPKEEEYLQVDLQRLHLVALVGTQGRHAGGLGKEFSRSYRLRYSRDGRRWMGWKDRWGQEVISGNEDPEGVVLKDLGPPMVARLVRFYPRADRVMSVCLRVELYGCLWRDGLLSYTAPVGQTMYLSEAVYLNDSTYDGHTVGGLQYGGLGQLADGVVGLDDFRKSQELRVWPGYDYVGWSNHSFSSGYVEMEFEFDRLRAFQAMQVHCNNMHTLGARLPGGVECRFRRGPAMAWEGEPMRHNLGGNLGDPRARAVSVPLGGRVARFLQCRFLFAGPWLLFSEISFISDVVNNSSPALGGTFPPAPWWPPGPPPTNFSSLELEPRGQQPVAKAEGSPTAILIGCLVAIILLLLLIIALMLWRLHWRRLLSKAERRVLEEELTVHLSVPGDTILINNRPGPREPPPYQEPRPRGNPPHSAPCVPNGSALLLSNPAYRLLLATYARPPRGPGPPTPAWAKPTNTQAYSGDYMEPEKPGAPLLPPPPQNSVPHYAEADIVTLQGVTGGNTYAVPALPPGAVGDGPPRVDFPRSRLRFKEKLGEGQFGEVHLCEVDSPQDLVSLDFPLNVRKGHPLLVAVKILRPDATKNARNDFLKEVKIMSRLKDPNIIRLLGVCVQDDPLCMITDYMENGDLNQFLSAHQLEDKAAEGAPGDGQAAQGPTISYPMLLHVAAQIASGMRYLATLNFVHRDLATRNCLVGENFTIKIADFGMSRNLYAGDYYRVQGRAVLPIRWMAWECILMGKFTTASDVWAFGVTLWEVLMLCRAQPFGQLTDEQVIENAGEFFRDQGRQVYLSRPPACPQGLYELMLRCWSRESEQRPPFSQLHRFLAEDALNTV
High affinity nerve growth factor receptor (Homo sapiens, UniProt P04629), sequence (P04629 whole entry, the tested form may be a part): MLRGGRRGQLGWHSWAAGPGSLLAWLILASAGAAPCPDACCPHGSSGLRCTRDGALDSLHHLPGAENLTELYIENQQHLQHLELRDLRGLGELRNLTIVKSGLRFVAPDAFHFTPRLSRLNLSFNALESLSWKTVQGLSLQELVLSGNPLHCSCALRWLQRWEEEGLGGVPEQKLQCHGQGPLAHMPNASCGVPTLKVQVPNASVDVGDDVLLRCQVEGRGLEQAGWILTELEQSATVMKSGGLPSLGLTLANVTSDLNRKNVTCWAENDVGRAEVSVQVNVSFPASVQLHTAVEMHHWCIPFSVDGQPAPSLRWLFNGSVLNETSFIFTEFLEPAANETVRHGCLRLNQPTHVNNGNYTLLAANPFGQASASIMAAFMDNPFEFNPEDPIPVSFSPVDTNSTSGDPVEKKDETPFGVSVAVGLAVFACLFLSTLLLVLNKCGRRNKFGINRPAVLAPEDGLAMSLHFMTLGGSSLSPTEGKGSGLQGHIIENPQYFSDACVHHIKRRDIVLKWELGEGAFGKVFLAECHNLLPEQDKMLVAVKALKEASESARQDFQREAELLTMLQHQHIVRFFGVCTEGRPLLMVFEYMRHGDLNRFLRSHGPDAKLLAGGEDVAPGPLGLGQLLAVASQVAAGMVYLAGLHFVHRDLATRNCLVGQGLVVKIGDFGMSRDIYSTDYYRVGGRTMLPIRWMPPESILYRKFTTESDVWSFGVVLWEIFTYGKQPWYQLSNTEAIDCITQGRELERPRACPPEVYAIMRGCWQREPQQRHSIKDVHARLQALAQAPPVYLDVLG
Angiopoietin-1 receptor, sequence (Q02763 whole entry, the tested form may be a part): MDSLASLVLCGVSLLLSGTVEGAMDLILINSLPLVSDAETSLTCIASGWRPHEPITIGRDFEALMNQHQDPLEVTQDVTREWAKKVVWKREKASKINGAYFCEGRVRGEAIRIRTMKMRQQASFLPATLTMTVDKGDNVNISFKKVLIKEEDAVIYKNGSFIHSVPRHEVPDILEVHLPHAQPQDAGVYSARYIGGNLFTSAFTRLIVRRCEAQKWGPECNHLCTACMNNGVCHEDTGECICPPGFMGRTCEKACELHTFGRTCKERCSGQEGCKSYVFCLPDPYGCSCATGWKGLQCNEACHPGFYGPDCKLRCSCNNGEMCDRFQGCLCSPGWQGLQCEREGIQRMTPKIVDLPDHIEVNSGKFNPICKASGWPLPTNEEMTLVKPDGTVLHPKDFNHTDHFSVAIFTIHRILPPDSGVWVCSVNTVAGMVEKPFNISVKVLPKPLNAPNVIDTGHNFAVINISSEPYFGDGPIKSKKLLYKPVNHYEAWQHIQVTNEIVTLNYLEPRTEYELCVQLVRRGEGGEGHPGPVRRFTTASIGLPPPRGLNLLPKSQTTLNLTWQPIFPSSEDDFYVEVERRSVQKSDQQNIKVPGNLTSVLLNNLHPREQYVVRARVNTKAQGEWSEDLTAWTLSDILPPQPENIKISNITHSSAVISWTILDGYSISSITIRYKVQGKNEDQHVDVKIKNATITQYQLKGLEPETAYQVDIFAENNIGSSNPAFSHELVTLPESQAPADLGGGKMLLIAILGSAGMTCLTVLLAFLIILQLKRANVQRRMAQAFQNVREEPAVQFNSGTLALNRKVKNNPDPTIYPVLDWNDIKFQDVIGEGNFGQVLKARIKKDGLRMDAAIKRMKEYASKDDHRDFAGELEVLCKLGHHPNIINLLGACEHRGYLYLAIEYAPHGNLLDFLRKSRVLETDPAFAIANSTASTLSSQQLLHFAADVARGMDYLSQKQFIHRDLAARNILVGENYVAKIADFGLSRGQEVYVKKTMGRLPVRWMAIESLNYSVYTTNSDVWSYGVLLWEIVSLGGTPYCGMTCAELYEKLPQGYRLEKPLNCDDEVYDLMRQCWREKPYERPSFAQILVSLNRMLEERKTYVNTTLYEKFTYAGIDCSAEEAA

IC50 (BaF3 [3]) [nM]	IC50 (BaF3 [5]) [nM]	IC50 (BaF3 [6]) [nM]	IC50 (BaF3 [7]) [nM]	IC50 (BaF3 [12]) [nM]	IC50 (BaF3 [13]) [nM]	IC50 (BaF3 [14]) [nM]	IC50 (BaF3 [15]) [nM]	IC50 (BaF3 [16]) [nM]	IC50 (BaF3 [17]) [nM]	IC50 (BaF3 [18]) [nM]	SMILES	other results
180	520	140	35	–	–	–	–	–	–	–	Cc1c2cc(cc1C(=O)Nc1cc(CN3CCN(C)CC3)cc(C(F)(F)F)c1)OCCCCC(=O)NCCN(C)c1ccc3ncc(n3n1)C#C2	IC50 [1]: 80.6 nM; IC50 [2]: 7.8 nM; IC50 [4]: 2.7 nM
–	–	–	–	–	–	–	–	–	–	–	Cc1cn(-c2cc(NC(=O)c3cc4cc(c3C)C#Cc3cnc5ccc(nn35)N(C)CCNC(=O)CCCCO4)cc(C(F)(F)F)c2)cn1	IC50 [8]: 26.4 nM; AUC(0-t) at 24 h [9]: 51.6 ng·h/mL; IC50 [10]: 313 nM; IC50 (Ephrin type-A receptor 7): 162 nM; Cmax [11]: 19.1 ng/mL; IC50 (Angiopoietin-1 receptor): 217 nM
7	1550	9	110	14.8	> 1000	38.2	96	332	10.1	173	O=C(Nc1cnn2ccc(N3CCC[C@@H]3c3cc(F)ccc3F)nc12)N1CC[C@H](O)C1 [LAROTRECTINIB]	–
–	–	–	41	2.4	8.5	10.5	5.7	28.2	3.2	10.7	C[C@@H]1CCc2ncc(F)cc2[C@H]2CCCN2c2ccn3ncc(c3n2)C(=O)N1 [SELITRECTINIB]	IC50 (BaF3 [19]): 8.2 nM; IC50 (BaF3 [20]): > 10000 nM; IC50 [21]: 2.3 nM
